Results from patent publication US5283255A, “Wavelength-specific cytotoxic agents” (The University of British Columbia, priority 1992, dated 1994).

Key:
Absorption spectrum = type: physicochemical; conditions: R^1 and R^2 carbomethoxy; FIG. 3
Text: All of the compositions of the invention employ as the light absorbing compound, a derivative of the protoporphyrin ring system which has a light absorption maximum in the range of 670-780 nanometers. […] Only BPD-DA has a major absorption peak at about 685 nm.

tumor cells = assay: Alternate in vivo assay: kill of tumor cells from dosed mice (MTT); conditions: 180 min
M-1 rhabdomycoscercoma = assay: In vivo photosensitization, M-1 rhabdomyosarcoma system in DBA/J2 mice; conditions: for Number of Days Tumor Free (PR) / Cures (tumor regressed and tumor-free for 30 days): Table 6; for Number of Days Tumor Free (PR): 567 Jo/cm^2, IV 24 h before light; for Cures (tumor regressed and tumor-free for 30 days): 567 Jo/cm^2, 8 animals per group; for Days Tumor-free / Number of Cures: Table 7, light dose 378 To/cm^3; for Number of Cures: 9-15 animals
Experimental: Studies of potential photosensitizers were performed using the M-1 rhabdomycoscercoma system in DBA/J2 mice. The compositions to be tested were diluted to a concentration of […] in PBS from a stock solution in DMSO at 8 mg/ml (except Photofrin® II, which was diluted directly from the clinical vial). […]

VSV = assay: microbe, parasite or virus in culture; set-up: species or system Vesicular stomatitis virus; conditions: Vesicular stomatitis virus, light or radiation study, 2 h, read-out: viral kill, 2 μg/ml; 1 ml; 2 h; 57.6 J/cm^2
target cells = assay: In vitro evaluation of BPD-DA, -MA, -DB and -MB (as in Example 1); type: cell-based
Experimental: For the "affinity" assay, in the dark, 100 μl of the target cell suspension and 100 μl of the test or control compound were mixed. "Labeling" was allowed to continue for one hour at 4° C., and labeled cells were washed in the dark three times with 3 ml medium each time and resuspended in fresh medium. The resuspended cells were then subjected to light exposure at 300-750 nanometers for 30 minutes.
In a "direct" assay the target cells were irradiated immediately upon addition of the test or control compound.
The effect of irradiation was estimated using methods appropriate to the target cells.
The four compounds shown in FIG. 2, wherein R^1 and R^2 are carbomethoxy, were tested in vitro as described in Example 1.

[1] = Solubility on dilution for addition to blood; conditions: DMSO stock 8 mg/ml diluted into PBS
skin = assay: Skin sensitivity assay in mice bearing P815 tumors
Experimental: Mice bearing P815 tumors were shaved and injected with equivalent amounts of photosensitizer, and exposed to 72 Jo/cm^2 (80 mw/cm^2 -15 min-full spectrum) at various time intervals. Skin biopsies were taken at 24 and 48 hours after light irradiation and visual evaluations were made blind.

Row | Structure (SMILES) | major absorption peak (Absorption spectrum) | % Kill (tumor cells; 80 μg/mouse IV, light dose 3.8 Jo) | % Kill (tumor cells; 80 μg/mouse IV, light dose 7.6 Jo) | Number of Days Tumor Free (PR) (M-1 rhabdomycoscercoma) | Cures (tumor regressed and tumor-free for 30 days) (M-1 rhabdomycoscercoma) | Days Tumor-free (M-1 rhabdomycoscercoma) | Number of Cures (M-1 rhabdomycoscercoma) | log reduction at 2 µg/mL (VSV) | in vitro photosensitivity (target cells) | treatment required to achieve solubility [1] | % Kill (tumor cells; 33 μg/mouse IV, light dose 5.7 Jo) | skin photosensitizing activity (skin; 72 Jo/cm^2, biopsies 24 and 48 h after light) | time dependence of skin photosensitizing activity (skin; light at various intervals after drug)
1 | C=Cc1c(C)c2cc3nc(cc4[nH]c(cc5nc(cc1[nH]2)C(C)=C5CCC(=O)O)c(CCC(=O)O)c4C)C1(C)C3=CC=C(C(=O)OC)C1C(=O)OC (stereo not drawn) [BPD-DA] | about 685 nm | 11.0% | 26.0% | 10.7 days | 4 | 2.5 days | 4 |  |  |  |  |  | 
2 | C=Cc1c(C)c2cc3nc(cc4[nH]c(cc5nc(cc1[nH]2)C1(C)C5=CC=C(C(=O)OC)C1C(=O)OC)c(C)c4CCC(=O)O)C(CCC(=O)O)=C3C (stereo not drawn) [BPD-DB] |  |  |  | 10.6 days | 3 | 13.0 days | 8 |  |  |  |  |  | 
3 | C=Cc1c(C)c2cc3nc(cc4[nH]c(cc5nc(cc1[nH]2)C1(C)C5=CC=C(C(=O)OC)C1C(=O)OC)c(C)c4CCC(=O)O)C(CCC(=O)OC)=C3C (stereo not drawn) [BPD-MB] |  |  |  | 10.6 days | 3 | 8.7 days | 6 | 4 | somewhat more active | required a 20-minute sonication in ultrasonic bath to achieve solubility | 25.2% | to a lesser extent | only present when light treatment was given 3 hours post drug administration
